Data as given in article PMC9481533, “Structure-based discovery of small molecules that disaggregate Alzheimer’s disease tissue derived tau fibrils in vitro” (Nature Communications, 2022).
Several values for one entry are separate records, joined by “and”; a condition that tells them apart may be missing. Equal entries are not always repeated. Blank lines part the entries; values can stand above or below the compound they belong to.

Assays:
Neuro2a cells = assay: MTT cytotoxicity assay; assay type: cell-based; details: for MTT cell viability, compound alone, Fig. 3f: Neuro2a, final small molecule concentration 10 µM, 24 h, vehicle = 100% viable, individual replicates, 10 µM
Description: (§1) In all, 90 µL of Neuro2a cells were plated on clear 96 well plates (Falcon 353072) at 6000 cells per well and given 24 h to adhere to the plate. Subsequent treatment consisted of PHF samples that were co-incubated with or without 100 µM of small molecules for 48 h at 37 °C, with 10 µl applied per well for a final small molecule concentration of 10 µM. After another 24-h incubation at 37 °C, 20 µl of Thiazolyl Blue Tetrazolium Bromide MTT dye (Sigma; 5 mg/ml stock in DPBS) was added to each well and further incubated for 3.5 h at 37 °C. The assay was arrested by replacement of all media with 100% DMSO and transferred to a SpectraMax MF reader. Background 700 nm readings were subtracted from the absorbance readings at 570 nm. Cells treated with 100% DMSO were designated as 0% viable and those treated only with vehicle were designated as 100% viable. Other well readings were normalized to these values.

MTT cytotoxicity assay = assay type: cell-based; details: mouse, Neuro2a cells, Neuro2a; final small molecule concentration 10 µM; 24 h; vehicle = 100% viable; individual replicates; read-out: MTT cell viability, compound alone, Fig. 3f
Description: as §1

[1] = biological target: T1, AD brain-derived tau fibrils (Homo sapiens, UniProt P10636); assay: Western blot of insoluble tau after compound treatment; assay type: biochemical; details: 72 h at 37 °C
Description: Proteins were transferred from gel to nitrocellulose membrane using an iBLOT2 system. The membrane was blocked for 1 h in TBST with 5% milk and washed with TBST three times. The membrane was then incubated with primary antibody (anti-tau A0024 (Dako), 1:4000 dilution in 2% milk/TBST solution) for 1 h, washed three times with TBST, incubated with horseradish peroxidase-conjugated secondary antibody (goat anti-mouse IgG H and L (HRP); 1:5000 Dilution in 2% milk/TBST), and washed three times in TBST.

[2] = biological target: brain-purified AD-tau fibrils in HEK293T tau biosensor cells (Homo sapiens, UniProt P10636); assay: Tau biosensor cell seeding assay, dose-dependent inhibition with brain-purified AD-tau fibrils; assay type: cell-based; details: for Number of seeded aggregates, Supp. Fig. 7: individual replicates
Description: (§2) Human autopsy samples were obtained by the Mayo Clinic Brain Bank and UCLA Pathology Department according to HHS regulations from patients consenting to autopsy. Samples were provided to the researchers of this study as anonymized tissues. For purification of paired helical filaments (PHFs) and straight filaments (SFs) from AD brain tissue, extractions were performed according to the previously published protocol without any modifications. […] For biosensor seeding assays with crude AD brain extracts, fresh-frozen tissue from neuropathologically confirmed AD cases was thawed and cut into a 0.2–0.3 g sections. Tissue was manually homogenized in a 15 ml disposable tube in 1 ml of 50 mM Tris, pH 7.4 with 150 mM NaCl, and then aliquoted to PCR tubes and sonicated in a cuphorn bath for 120 min under 30% power at 4 °C in a recirculating ice water bath, according to reference.
(§3) HEK293T cell lines stably expressing tau-K18 P301S-eYFP were obtained from Marc Diamond[25] and used without further characterization or authentication. […] Inhibitors were dissolved in DMSO. […] After twenty minutes, 10 µl of fibrils were added to 90 µl of tau biosensor cells. The number of seeded aggregates was determined by imaging the entire well of a 96-well plate in triplicate using a Celigo Image Cytometer (Nexcelom) in the YFP channel. The number of aggregates in a given image was determined using an ImageJ 2.3.0[50] script, which subtracts the background fluorescence from unseeded cells, and then counts the number of aggregates as peaks with fluorescence above the background using the built-in Particle Analyzer. The number of aggregates was normalized to the confluence of each well, and dose-response plots were generated by calculating the average and standard deviations from triplicate measurements.

[3] = biological target: crude AD brain extracts (tau seeds) in HEK293T tau biosensor cells (Homo sapiens, UniProt P10636); assay: Tau biosensor cell seeding assay, screen with crude AD brain extracts; assay type: cell-based; details: 10 μM inhibitor on cells, seeds pre-incubated 16–18 h at 4 °C, individual replicates (n=3), DMSO control 10734.9/12808.5/11145.3
Source text: From the in silico screen, compounds were ranked and 46 were selected for further experimental validation based on the total binding energy of the ligand/fibril complex. The experimental assessment consisted of direct measures of fibril disassembly (Fig. 2d, e and Supplementary Table 3) and assessment of the seeding capability of the products of disassembled AD tau fibrils in a biosensor cell assay. Disaggregating molecules that produce active seeds are undesirable for therapy and are excluded from further study. HEK293T cells expressing CFP- or YFP-fused tau are transduced with exogenous AD tau fibrils. Externally applied AD-tau fibrils then induce the aggregation of the endogenous fluorescent tau, resulting in the formation of FRET-positive intracellular aggregates, visible as bright puncta by fluorescence microscopy (Fig. 2f). Automated image analysis of visible puncta provides an objective quantification of seeded aggregation. […] Although biosensors may be limited in reporting structural characteristics of fibril progeny, they offer exquisitely sensitive measures of tau seeding activity—the ability for fibrils to recruit monomeric protein into fibrillar form, which is thought to be the mechanism for tau spreading in AD.
as §2, §3

[4] = biological target: T1, AD brain-derived tau fibrils; assay: Negative stain EM and quantitative EM (qEM) of tau fibrils after compound treatment; assay type: biochemical
Description: Negatively stained EM Grids were prepared by depositing 6 µl of sample on formvar/carbon-coated copper grids (400 mesh) for 3 min. The sample was rapidly wicked using filter paper without drying the grid and stained with 1% uranyl acetate for 2 min. […] Fibrils were counted from collections of 33 micrographs (in triplicate) for each experimental condition.

[5] = inhibitor concentration 10 (µM)
[6] = inhibitor concentration 40 (µM)

crude AD brain extracts (tau seeds) in HEK293T tau biosensor cells, sequence (P10636 623-695 limits assumed): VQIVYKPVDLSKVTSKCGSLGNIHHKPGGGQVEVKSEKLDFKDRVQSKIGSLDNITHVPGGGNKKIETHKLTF
T1 sequence (P10636 623-695 limits assumed): as above
brain-purified AD-tau fibrils in HEK293T tau biosensor cells, sequence (P10636 623-695 limits assumed): as above

- Number of seeded aggregates, Supp. Fig. 7 ([2]; inhibitor concentration 1 (µM)): 9648.53 and 7383.58 and 7455.51
- Number of seeded aggregates, Supp. Fig. 7 ([2]; inhibitor concentration 2 (µM)): 5514.78 and 9418.9 and 7841.07
- Number of seeded aggregates, Supp. Fig. 7 ([2]; inhibitor concentration 5 (µM)): 11341.6 and 15697.2 and 9575.47
- Number of seeded aggregates, Supp. Fig. 7 [2, 5]: 4892.73 and 7401.62 and 3914.28
- Number of seeded aggregates, Supp. Fig. 7 [2, 6]: 2.016 and 15.6712 and 4.096
- Number of seeded aggregates in tau biosensor cells (normalized to confluence), Fig. 2e ([3]; listed as lomitapide): 1844.31 and 2433.57 and 2611.16
SMILES: O=C(NC1CCN(CCCCC2(C(=O)NCC(F)(F)F)c3ccccc3-c3ccccc32)CC1)c1ccccc1-c1ccc(C(F)(F)F)cc1 [FDA-A2, Lomitipide]

- Number of seeded aggregates in tau biosensor cells (normalized to confluence), Fig. 2e ([3]; listed as acetohexamide aka Dymelor): 9289.39 and 6525.19 and 13238.7
SMILES: CC(=O)c1ccc(S(=O)(=O)NC(=O)NC2CCCCC2)cc1 [FDA-R-8, Acetohexamide]

- Number of seeded aggregates in tau biosensor cells (normalized to confluence), Fig. 2e ([3]; listed as Isoetharine mesylate): 7986.42 and 10421.3 and 17350.6
SMILES: CCC(NC(C)C)C(O)c1ccc(O)c(O)c1 (stereo not shown) [FDA-R-14, Isoetharine]

- Number of seeded aggregates in tau biosensor cells (normalized to confluence), Fig. 2e ([3]; listed as cromolyn sodium): 8238.89 and 9556.51 and 14800.8
SMILES: O=C(O)c1cc(=O)c2c(OCC(O)COc3cccc4oc(C(=O)O)cc(=O)c34)cccc2o1 [FDA-R-23, Sodium chromoglycate]

- Number of seeded aggregates in tau biosensor cells (normalized to confluence), Fig. 2e [3]: 5170.49 and 6311.14 and 10607
SMILES: CN(C)S(=O)(=O)c1ccc2c(c1)/C(=C/c1cc3c([nH]1)CCCC3)C(=O)N2 [su6656]

Continued, compound first:

SMILES: O=C1c2ccccc2C(=O)N1c1nc2nccc(-c3ccccc3)n2n1 [CNS-2, 2-(7-phenyl[1,2,4]triazolo[1,5-a]pyrimidin-2-yl)-1H-isoindole-1,3(2H)-dione]
- MTT cell viability, compound alone, Fig. 3f (Neuro2a cells): 89.5134% and 84.5916%
- viability at 24 h, 10 µM (MTT cytotoxicity assay): 97.5%

SMILES: Cc1cc(C)c(NC(=O)Cn2nc3c4c(cccc4c2=O)-c2ccccc2-3)c(C)c1 [CNS-11, N-mesityl-2-(3-oxoindeno[1,2,3-de]phthalazin-2(3H)-yl)acetamide]
- Neuronal cytotoxicity of compound (Neuro2a cells; Neuro 2a (N2a) cells, MTT): significant cytotoxicity
- MTT cell viability, compound alone, Fig. 3f (Neuro2a cells): 62.1272% and 57.0691%
- viability at 24 h, 10 µM (MTT cytotoxicity assay): 60.2%

SMILES: Cc1cc(C)cc(N2C(=O)N(c3cccc(Cl)c3)C3CS(=O)(=O)CC32)c1 (stereo not shown) [CNS-12, 1-(3-chlorophenyl)-3-(3,5-dimethylphenyl)tetrahydro-1H-thieno[3,4-d]imidazol-2(3H)-one 5,5-dioxide]
- MTT cell viability, compound alone, Fig. 3f (Neuro2a cells): 107.797% and 97.7194% and 77.9839%

SMILES: O=C(Nc1cccc(C(F)(F)F)c1)N1c2ccccc2Sc2ccccc21 [CNS-17, N-[3-(trifluoromethyl)phenyl]-10H-phenothiazine-10-carboxamide]
- Reduction of insoluble tau by Western blot [1]: reduction in insoluble tau species
- MTT cell viability, compound alone, Fig. 3f (Neuro2a cells): 66.6981% and 63.9984%
- viability at 24 h, 10 µM (MTT cytotoxicity assay): 74.1%
- IC50 ([2]; brain-purified AD-tau fibrils, read-out: IC50, inhibition of seeding efficiency in biosensor cells): < 5 µM
- Number of seeded aggregates, Supp. Fig. 7 ([2]; inhibitor concentration 1 (µM)): 12634.1 and 17143.6 and 11095.2
- Number of seeded aggregates, Supp. Fig. 7 ([2]; inhibitor concentration 2 (µM)): 9200.81 and 9676.73 and 6081.22
- Number of seeded aggregates, Supp. Fig. 7 ([2]; inhibitor concentration 5 (µM)): 9500.56 and 10385 and 5182.56
- Number of seeded aggregates, Supp. Fig. 7 [2, 5]: 11886 and 11650.5 and 6860.55
- Number of seeded aggregates, Supp. Fig. 7 [2, 6]: 3439.45 and 1968.58 and 2178.79
- Number of seeded aggregates in tau biosensor cells (normalized to confluence), Fig. 2e ([3]; listed as 6870810): 4788.26 and 4837.93 and 6713.19
- Fibril reduction by qEM [4]: a corresponding reduction in fibril density was not seen by qEM
- Quantitation of fibril number on EM images (qEM), Fig. 3c ([4]; relative scale, fibrils alone about 1, individual replicates of 33 micrographs): 0.7296 and 1.4265 and 0.6447

SMILES: CC1=C(C/C=C(\C)CCC[C@H](C)CCC[C@H](C)CCCC(C)C)C(=O)c2ccccc2C1=O [FDA-R-9, Phytonadione]
- Number of seeded aggregates in tau biosensor cells (normalized to confluence), Fig. 2e [3]: 7414.6 and 8137.54 and 11548.1

SMILES: CCCCCCCCCC(=O)OCCN1CCN(CCCN2c3ccccc3Sc3ccc(C(F)(F)F)cc32)CC1 [FDA-R-15, Prolixin decanoate]
- Number of seeded aggregates in tau biosensor cells (normalized to confluence), Fig. 2e ([3]; listed as Prolixin decanoate aka fluphenazine): 15859.2 and 19243.3 and 27665.8

SMILES: O=[N+]([O-])O[C@@H]1CO[C@H]2[C@@H]1OC[C@@H]2O [FDA-R-17, Isosorbide Mononitrate]
- Number of seeded aggregates in tau biosensor cells (normalized to confluence), Fig. 2e ([3]; listed as isosorbide mononitrate mw): 7858.85 and 13647.5 and 18697.1

SMILES: CC(C)OC(=O)CCC/C=C\C[C@@H]1[C@@H](/C=C/[C@@H](O)COc2cccc(C(F)(F)F)c2)[C@H](O)C[C@@H]1O [FDA-R-18, Travoprost]
- Number of seeded aggregates in tau biosensor cells (normalized to confluence), Fig. 2e [3]: 5152.95 and 6033.26 and 10826.5

SMILES: C[C@@H]1C/C=C/C=C/C=C/C=C/[C@H](O[C@@H]2O[C@H](C)[C@@H](O)[C@H](N)[C@@H]2O)C[C@@H]2O[C@](O)(C[C@@H](O)C[C@H]3O[C@@H]3/C=C/C(=O)O1)C[C@H](O)[C@H]2C(=O)O [FDA-R-19, Natamycin]
- Number of seeded aggregates in tau biosensor cells (normalized to confluence), Fig. 2e [3]: 9211.55 and 6199.61 and 13007.3

SMILES: CN(C)CCCN1c2ccccc2CCc2ccccc21 [FDA-R-24, Imipramine]
- Number of seeded aggregates in tau biosensor cells (normalized to confluence), Fig. 2e [3]: 13643.9
